# Measurements as given in PubChem BioAssay (NCI).
# “And” between values parts separate entries of the source, which are not always exact repeats. Equal values may be shown once.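 1) Cells in 96-well plates. 2) Compound, 48 h, 5 concentrations. 3) Linear interpolation between surrounding doses. 4) Unreached endpoint = highest concentration. Here, GI50 denotes the concentration required for 50% inhibition of growth. TGI is the concentration that stops growth completely.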
# Test system: SNB-75 CNS
# Assay: growth of human tumour cells (NCI), 48 h
Structure (SMILES),GI50 [µM],TGI
COc1cccc(-c2nc3sccn3c2-c2ccnc(NCCCNS(=O)(=O)c3ccccc3)c2)c1,1.55,8.08 µM
CC1OC(OC2C(O)C(O)C(O)C(O)C2O)C(N)CC1N=C(N)C(=O)O (configuration not stated),–,> 100 µM
C=CC(=O)Nc1cc2c(Nc3ccc(F)c(Cl)c3)ncnc2cc1C#CC(C)(C)N1CCN(C)CC1,1.16,3.86 µM
CSC1=Nc2c(c(C)c(-c3ccccc3)n2COC(CO)CO)C2=NC(=O)CC(C)N12 (configuration not stated),85.3,> 100 µM
NCCCN=c1ccc2c3c1c(O)c1c(O)ccc(=O)c1c3[nH]n2CCNCCO,0.423,5.14 µM and 4.69 µM
C=C1C[C@@H]2O[C@H]3[C@H]4[C@@H](CC[C@@](C)(OC(=O)CCC)[C@H]42)[C@@H](C)C(=O)O[C@@]3(C)CC[C@H]1OO,20.5,44.6 µM

# Test system: K-562 leukemia
# Assay: growth of human tumour cells (NCI), 48 h
Structure (SMILES),GI50,TGI
CCOC(=O)c1c(CN2CCN(C)CC2)nc2ccc(Cl)cc2c1-c1ccccc1,1.86 µM,4.66 µM
COc1ccccc1NC(=O)C1=C(C)NC(C)=C(C(=O)Nc2ccccc2OC)C1c1ccco1,–,> 63.5 µM
Cc1ccc(OC(=O)N2C/C(=C\c3ccccc3)C(=O)/C(=C/c3ccccc3)C2)cc1,–,> 51.7 µM
CCOc1ccc2cc(-c3nn(CC4CCNCC4)c4ncnc(N)c34)ccc2c1,4.69 µM,17.1 µM
O=c1oc2c3ccc4ccccc4c3n(CCN3CCCCC3)c2c2ccccc12,–,> 100 µM
O=c1cccc(Cl)[nH]1,–,> 100 µM
COc1ccccc1C(=O)N(Cc1ccccc1)c1ccc(Cl)c(C(=O)OC(C)C)c1,–,> 100 µM
OCCN(CO)CO,–,> 100 µM
CN1CC[C@H](c2c(O)cc(O)c3c(=O)cc(-c4ccccc4Cl)oc23)[C@H](O)C1,0.225 µM,> 10 µM
COc1cccc(-c2nc3sccn3c2-c2ccnc(NCCCNS(=O)(=O)c3ccccc3)c2)c1,2.57 µM,> 100 µM
CC1OC(OC2C(O)C(O)C(O)C(O)C2O)C(N)CC1N=C(N)C(=O)O (configuration not stated),–,> 100 µM
C=CC(=O)Nc1cc2c(Nc3ccc(F)c(Cl)c3)ncnc2cc1C#CC(C)(C)N1CCN(C)CC1,1.05 µM,6.59 µM
CSC1=Nc2c(c(C)c(-c3ccccc3)n2COC(CO)CO)C2=NC(=O)CC(C)N12 (configuration not stated),> 100 µM,> 100 µM
NCCCN=c1ccc2c3c1c(O)c1c(O)ccc(=O)c1c3[nH]n2CCNCCO,1.61 µM and 1.64 µM,24.2 µM and 27.2 µM
C=C1C[C@@H]2O[C@H]3[C@H]4[C@@H](CC[C@@](C)(OC(=O)CCC)[C@H]42)[C@@H](C)C(=O)O[C@@]3(C)CC[C@H]1OO,1.79 µM,3.28 µM

# Test system: NCI-H23 lung
# Assay: growth of human tumour cells (NCI), 48 h
Structure (SMILES),GI50 [µM],TGI
CCOC(=O)c1c(CN2CCN(C)CC2)nc2ccc(Cl)cc2c1-c1ccccc1,14.5,30.1 µM
COc1ccccc1NC(=O)C1=C(C)NC(C)=C(C(=O)Nc2ccccc2OC)C1c1ccco1,–,32.4 µM
Cc1ccc(OC(=O)N2C/C(=C\c3ccccc3)C(=O)/C(=C/c3ccccc3)C2)cc1,–,87.9 µM
CCOc1ccc2cc(-c3nn(CC4CCNCC4)c4ncnc(N)c34)ccc2c1,13.4,31.9 µM
O=c1oc2c3ccc4ccccc4c3n(CCN3CCCCC3)c2c2ccccc12,–,> 69.5 µM
O=c1cccc(Cl)[nH]1,–,> 100 µM
COc1ccccc1C(=O)N(Cc1ccccc1)c1ccc(Cl)c(C(=O)OC(C)C)c1,–,> 82.8 µM
OCCN(CO)CO,–,> 100 µM
CN1CC[C@H](c2c(O)cc(O)c3c(=O)cc(-c4ccccc4Cl)oc23)[C@H](O)C1,0.0793,0.609 µM
COc1cccc(-c2nc3sccn3c2-c2ccnc(NCCCNS(=O)(=O)c3ccccc3)c2)c1,2.99,> 100 µM
CC1OC(OC2C(O)C(O)C(O)C(O)C2O)C(N)CC1N=C(N)C(=O)O (configuration not stated),–,> 100 µM
C=CC(=O)Nc1cc2c(Nc3ccc(F)c(Cl)c3)ncnc2cc1C#CC(C)(C)N1CCN(C)CC1,1.72,3.78 µM
CSC1=Nc2c(c(C)c(-c3ccccc3)n2COC(CO)CO)C2=NC(=O)CC(C)N12 (configuration not stated),> 100,> 100 µM
NCCCN=c1ccc2c3c1c(O)c1c(O)ccc(=O)c1c3[nH]n2CCNCCO,1.06,5.66 µM and 8.54 µM
C=C1C[C@@H]2O[C@H]3[C@H]4[C@@H](CC[C@@](C)(OC(=O)CCC)[C@H]42)[C@@H](C)C(=O)O[C@@]3(C)CC[C@H]1OO,16.9,30.6 µM
